Reference: PMC12461331, “Screening of Medicines for Malaria Venture Open Boxes Identifies Potent SARS-CoV‑2 Papain-like Protease (PL^pro) Inhibitors” (ACS Omega, 2025)
In brackets after ≈: the same amount, converted by molar mass. Several values for one entry are separate records, joined by “and”; a condition that tells them apart may be missing. Equal values may be shown once. Read-outs that look alike come from different tables or passages of the source.

Assays:
[1] = Human liver microsomal stability assay; details: human
[2] = physchem; details: 25 °C, kinetic from dmso stock
[3] = Mouse liver microsomal stability assay; details: CD1, mouse, pH 7.4
[4] = female, BALB/c, mouse, 1 h, 2 μM, pH 7.4
[5] = in vitro; details: CD1, mouse, microsomes, pH 7.4
[6] = target: PL^pro (Severe acute respiratory syndrome coronavirus 2, UniProt P0DTD1); details: 20 μM compound, 5 μM enzyme, average of triplicates with SD
[7] = in vitro; details: PAMPA
[8] = in vitro; details: human, microsomes, pH 7.4
[9] = Plasma stability; details: for half-life at 2 μM: female, BALB/c, mouse, plasma, pH 7.4
[10] = physchem; details: pH 7.4
[11] = human, microsomes
[12] = target: SARS-CoV-2 PL^pro (Severe acute respiratory syndrome coronavirus 2, UniProt P0DTD1); format: biochemical
[13] = test system: SARS-CoV-2; details: Vero CCL-81 cells, 1 μM
[14] = test system: uninfected HeLa-ACE2 cells; details: Hela-ACE2 Uninfected Cell Toxicity
[15] = test system: SARS-CoV-2
[16] = in vitro; details: human, uninfected HeLa-ACE2 cells
[17] = test system: HeLa-ACE2 cells; test: cells; details: Homo sapiens
[18] = test system: HeLa-ACE2 cells; details: Hela-ACE2 CoV-2 Total Cell count
[19] = test system: SARS-CoV-2; test: microbe, parasite or virus in culture
[20] = Chromatographic distribution coefficient (eLogD7.4); details: pH 7.4
[21] = Kinetic solubility; details: 25 °C, kinetic from dmso stock
[22] = Parallel artificial membrane permeability assay (PAMPA)
[23] = Hela-ACE2 % Positive SARS-CoV-2, curve fit

Compound	half-life at 0.5 μM ([1]; liver microsomes, pH 7.4) [min]	solubility kinetic at 24 h ([2]; pH 2, aqueous buffer) [µg/mL]	solubility kinetic at 24 h ([2]; pH 7.4, aqueous buffer) [µg/mL]	half-life at 0.5 μM ([3]; liver microsomes) [min]	plasma stability remaining 60 min [4] [%]	microsomal CLint at 0.5 μM [5] [µL/min/mg]	ΔT m [6]	Papp at 5 h, 10 μM [7] [×10⁻⁶ cm/s]	microsomal CLint at 0.5 μM [8] [µL/min/mg]	half-life at 2 μM [9] [min]	chromatographic logD [10]	metabolic stability (in words) [11]	also measured
CC[C@@H](C)N1CCC(C(=O)NCc2ccc(OC)cc2)CC1 (racemic) [Compound 14]	301	> 18.4	> 18.3	42.3	30.29	65.6	1.20 ± 0.06 °C	0.77	< 12	224	1.61	improved stability	–
N=C(N)NCCCCC(=O)Nc1cc(C(F)(F)F)cc(NC(=O)c2cc(C(=O)Nc3cc(C(F)(F)F)cc(NC(=O)CCCCNC(=N)N)c3O[C@@H]3CCNC3)ncn2)c1O[C@@H]1CCNC1 [Brilacidin, reference compound]	–	–	–	–	–	–	–	–	–	–	–	–	inhibition of SARS-CoV-2 PL^pro [12]: ≥ 80%; decrease of viral replication (viral load by RT-PCR) [13]: over 50%
COc1ccc(CNC(=O)C2CCN([C@@H](C)c3ccccc3)CC2)cc1 [Compound 2]	114	> 22.1	> 22	9.25	91.46	300	1.5 °C and 1.50 ± 0.05 °C	1.47	24.4	–	3	improved stability	–
Cc1ccc(CNC(=O)C2CCN([C@H](C)c3cccc4ccccc34)CC2)cc1 [Compound 4]	35.4	> 24.2	8.09 (≈ 20.9 µM)	13	58.47	214	7.98 °C and 7.9 ± 0.6 °C	0.78	78.4	385	4.56	–	Data Mode [14]: inactive; qAC50 ([14]; relation in column qAC50 Mode, unit not given): > 3.984e-5; CoV2 Efficacy (delta S0:Sinf) ([15]; HeLa-ACE2): 103.282; Data Mode ([15]; Hela-ACE2 % Positive SARS-CoV-2): decreasing (weakly active); S0 [15, 23]: 3.282; Sinf [15, 23]: -100; nHill [15, 23]: 1.703; CC50 at 24 h ([16]; uninfected HeLa-ACE2 CC50, supplement summary): > 39.8 µM; CC50 at 24 h ([16]; uninfected HeLa-ACE2 CC50, uninfected HeLa-ACE2 cells, average of triplicates): > 39.8 µM; EC50 ([17]; HeLa-ACE2, read-out: HeLa-ACE2 Total cells EC50): > 9.61 µM; EC50 ([17]; HeLa-ACE2, read-out: qAC50): > 9.61 µM; Data Mode [18]: inactive; AC50 ([19]; Severe acute respiratory syndrome coronavirus 2, HeLa-ACE2, read-out: Log AC50 (converted)): > 9.61 µM; EC50 ([19]; Severe acute respiratory syndrome coronavirus 2, HeLa-ACE2, read-out: SARS-CoV-2 EC50, HeLa-ACE2 cells, average of triplicates): > 9.61 µM; EC50 ([19]; Severe acute respiratory syndrome coronavirus 2, HeLa-ACE2, read-out: qAC50, Hela-ACE2 % Positive SARS-CoV-2, relation in column qAC50 Mode, unit inferred): > 9.61 µM
COc1ccc(CC(=O)N2CCN([C@@H](C)c3cccc4ccccc34)CC2)cc1 [Compound 8]	–	–	–	–	–	–	0.28 ± 0.05 °C	–	–	–	–	–	microsomal CLint at 0.5 μM ([1]; microsomes, pH 7.4, HLM CLint(mic), human liver microsomes): 186 µL/min/mg; half-life at 0.5 μM ([1]; microsomes, pH 7.4, HLM T 1/2, human liver microsomes): 14.9 min; chromatographic logD [20]: 4.56; solubility kinetic at 24 h ([21]; pH 2, aqueous buffer): > 22.9 µg/mL; solubility kinetic at 24 h ([21]; pH 7.4, aqueous buffer): > 15.8 µg/mL; half-life at 0.5 μM ([3]; microsomes): 7.97 min; microsomal CLint at 0.5 μM ([3]; microsomes): 348 µL/min/mg; Papp at 5 h, 10 μM [22]: 1.07 ×10⁻⁶ cm/s; plasma stability remaining 60 min ([9]; mouse plasma, 60 min): 84.48%
